# In US6469142B1, “Human N-methyl-D-aspartate receptor subunits, nucleic acids encoding same and uses therefor” (Merck & Co., Inc., priority 1993, dated 2002):
# Tests used:
# [1] = system: recombinant human NMDA receptors; assay: Antagonist block of agonist-induced currents in oocytes injected with NMDA receptor subunit transcripts (summary of Table 1); type: cell-based; details: 0.1-1.0 mM MgCl2 or 1 μM MK801
# Method: (§1) Xenopus oocytes were injected with in vitro transcripts prepared from constructs containing DNA encoding human NMDA receptor NMDAR1 and NMDAR2 subunits. Electrophysiological measurements of the oocyte transmembrane currents were made using the two-electrode voltage clamp technique (see e.g., Stuhmer (1992) Meth. Enzymol. 207:319-339).
# Xenopus oocytes were injected with 12.5-50 ng of one or more NMDA receptor subunit transcripts per oocyte. The preparation and injection of oocytes were carried out as described by Dascal [(1987) Crit. Rev. Biochem. 22:317-387]. Two-to-six days following mRNA injection, the oocytes were examined using the two-electrode voltage clamp technique. The cells were bathed in Ringer's solution (115 mM NaCl, 2.5 mM KCl, 1.8 mM CaCl2, 10 mM HEPES, pH 7.3), and the membrane potential was clamped at −80 to −100 mV. Drugs were applied by pipetting 6.0 μl aliquots of drug-containing solution directly into the bath, or by using gravity-feed into a Warner Instruments chamber (volume=110 μl) at a flow rate of 8 ml/min. The data were sampled at 2-5 Hz with a Labmaster data acquisition board in a PC-386 using AXOTAPE version 1.2 (Axon Instruments, Foster City, Calif.) software. The data were exported to a laser printer or plotted using Sigmaplot version 5.0. […]
# NMDA receptors = assay: [3H]-CGP39653 binding to rat buffy coat homogenate; details: 150 μg rat buffy coat homogenate; 60 min at 4° C.; read-out: Kd (Scatchard analysis, single class of binding sites)
# Method: 21:161]. […] The wash step is repeated once more. The final suspension is divided into aliquots, centrifuged.
# The binding of [^3H]-CGP39653 to rat brain membranes is carried out as described by Sills et al. [(1991) Eur. J. Pharmacol. 192:19]. The buffy coat membrane pellet is resuspended in 50 volumes of 5 mM Tris-HCl containing 10 mM EDTA, pH 7.7, and incubated for 10 min. at 37° C. The supernatant is centrifuged at 48,000×g for 10 min. at 4° C. The wash step is repeated once and the pellet is resuspended in 10 ml of 5 mM Tris-HCl containing 10 mM EDTA, pH 7.7. […] Unbound radioactivity is removed with two washes of 3 ml each of ice-cold buffer.
# Saturation analysis of [^3H]-CGP39653 binding was carried out by incubating 150 μg of rat buffy coat homogenate with increasing concentrations of [^3H]-CGP39653 for 60 min at 4° C.
# human NMDAR1A + NMDAR2A = biological target: T1, human NMDAR1A + NMDAR2A (Homo sapiens, UniProt Q05586+Q12879); assay: Two-electrode voltage clamp of Xenopus oocytes co-injected with NMDAR1A and pCMV-hNMDAR2A-3(53) transcripts; type: cell-based
# T1 construct: to generate the full-length construct NMDAR1A; Full-length DNAs encoding human NMDA receptor subunits have been inserted into vectors pcDNA1, pMMTVT7(+), pCMV-T7-2 and pCMV-T7-3; expressed in transfected cells; host or cells: Xenopus oocytes co-injected with in vitro transcripts
# Method: as §1
# (§2) Recombinant capped transcripts of NMDA receptor subunit cDNAs contained in constructs NMDAR1A, NMDAR1-I63, NMDAR1-I63-Δ204, NMDAR1-Δ1087, NMDAR1-Δ363, and pCMV-26-NotI-24 were synthesized from linearized plasmids using the mCAP RNA Capping Kit (Cat. #200350, Stratagene, Inc., La Jolla, Calif.). For experiments in which NMDAR2A or NMDAR2B and NMDAR1 or NMDAR1-I63 transcripts were co-injected into Xenopus oocytes, the transcripts were synthesized from linearized constructs NMDAR1A, NMDAR1-I63, pCMV-hNMDAR2A-3(53), pCMV-26-NotI-24 and pBS-hNMDAR2B using mMessage mMachine (Ambion, catalog #1344, Austin, Tex.). The mass of each synthesized transcript was determined by UV absorbance and the integrity of each transcript was determined by electrophoresis through an agarose gel.
# (§3) Xenopus oocytes were injected with 12.5-50 ng of one or more NMDA receptor subunit transcripts per oocyte. The preparation and injection of oocytes were carried out as described by Dascal [(1987) Crit. Rev. Biochem. 22:317-387]. […]
# [2] = biological target: T2, human NMDAR1A + NMDAR2A + NMDAR2C (Homo sapiens, UniProt Q05586+Q12879+Q14957); assay: cell-based
# T2 construct: other: 50 ng each transcript; co-applied with 100 μM NMDA; mean±S.D. of
# Method: as §1, §2, §3
# T1 sequence (Q12879 23-1464, other chains not shown): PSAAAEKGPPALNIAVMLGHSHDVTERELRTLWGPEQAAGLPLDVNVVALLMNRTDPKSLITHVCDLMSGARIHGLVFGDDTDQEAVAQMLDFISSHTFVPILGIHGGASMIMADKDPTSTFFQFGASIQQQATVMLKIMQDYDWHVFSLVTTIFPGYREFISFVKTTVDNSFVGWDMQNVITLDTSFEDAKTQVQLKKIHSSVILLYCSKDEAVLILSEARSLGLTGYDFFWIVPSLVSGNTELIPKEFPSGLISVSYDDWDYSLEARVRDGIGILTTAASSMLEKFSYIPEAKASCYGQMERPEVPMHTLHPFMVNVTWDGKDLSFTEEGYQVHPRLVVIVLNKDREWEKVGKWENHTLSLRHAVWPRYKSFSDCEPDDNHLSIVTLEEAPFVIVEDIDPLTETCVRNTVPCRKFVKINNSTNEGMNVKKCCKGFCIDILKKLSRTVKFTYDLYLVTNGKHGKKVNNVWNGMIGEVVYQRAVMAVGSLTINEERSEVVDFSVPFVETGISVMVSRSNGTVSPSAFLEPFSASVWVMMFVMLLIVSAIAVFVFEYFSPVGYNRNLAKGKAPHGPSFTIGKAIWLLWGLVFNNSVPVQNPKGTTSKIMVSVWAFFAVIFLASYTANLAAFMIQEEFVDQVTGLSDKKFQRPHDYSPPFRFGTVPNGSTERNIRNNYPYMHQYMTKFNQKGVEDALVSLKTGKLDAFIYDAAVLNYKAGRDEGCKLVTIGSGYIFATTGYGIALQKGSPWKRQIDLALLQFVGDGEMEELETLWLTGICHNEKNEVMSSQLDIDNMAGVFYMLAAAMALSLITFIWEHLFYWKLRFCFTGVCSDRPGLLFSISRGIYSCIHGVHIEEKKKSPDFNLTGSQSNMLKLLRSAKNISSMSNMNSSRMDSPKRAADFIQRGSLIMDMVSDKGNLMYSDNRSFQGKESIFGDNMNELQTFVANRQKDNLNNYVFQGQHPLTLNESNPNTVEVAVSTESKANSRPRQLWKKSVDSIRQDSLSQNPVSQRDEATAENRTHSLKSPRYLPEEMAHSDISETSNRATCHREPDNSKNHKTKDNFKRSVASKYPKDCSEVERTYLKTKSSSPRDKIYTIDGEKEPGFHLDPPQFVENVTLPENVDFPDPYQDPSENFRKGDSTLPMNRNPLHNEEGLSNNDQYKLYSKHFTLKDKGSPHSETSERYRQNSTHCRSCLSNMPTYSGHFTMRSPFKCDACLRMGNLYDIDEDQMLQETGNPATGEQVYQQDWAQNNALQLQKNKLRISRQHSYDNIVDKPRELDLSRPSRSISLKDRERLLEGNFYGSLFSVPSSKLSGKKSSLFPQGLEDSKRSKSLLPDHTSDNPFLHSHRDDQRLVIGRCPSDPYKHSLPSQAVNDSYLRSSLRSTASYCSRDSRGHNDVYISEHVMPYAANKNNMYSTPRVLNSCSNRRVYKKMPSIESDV
structure (smiles),measurement,setting,value
C[C@]12N[C@H](Cc3ccccc31)c1ccccc12 [MK801],"Block of NMDA agonist-induced currents, in general",[1],blocked
[Cl-].[Cl-].[Mg+2] [MgCl2],"Block of NMDA agonist-induced currents, in general",[1],blocked
CCCC(=CC(N)C(=O)O)CP(=O)(O)O (centres unmarked) [[^3H]-CGP39653],Kd,NMDA receptors,12.3 ± 0.12 nM
NCC(=O)O [glycine],EC50,human NMDAR1A + NMDAR2A,1900 ± 260 nM
same,EC50,[2],870 ± 240 nM
